The target in assay [1] is T1, NK3 (Homo sapiens, UniProt P29371).
T1 sequence (P29371 1-465): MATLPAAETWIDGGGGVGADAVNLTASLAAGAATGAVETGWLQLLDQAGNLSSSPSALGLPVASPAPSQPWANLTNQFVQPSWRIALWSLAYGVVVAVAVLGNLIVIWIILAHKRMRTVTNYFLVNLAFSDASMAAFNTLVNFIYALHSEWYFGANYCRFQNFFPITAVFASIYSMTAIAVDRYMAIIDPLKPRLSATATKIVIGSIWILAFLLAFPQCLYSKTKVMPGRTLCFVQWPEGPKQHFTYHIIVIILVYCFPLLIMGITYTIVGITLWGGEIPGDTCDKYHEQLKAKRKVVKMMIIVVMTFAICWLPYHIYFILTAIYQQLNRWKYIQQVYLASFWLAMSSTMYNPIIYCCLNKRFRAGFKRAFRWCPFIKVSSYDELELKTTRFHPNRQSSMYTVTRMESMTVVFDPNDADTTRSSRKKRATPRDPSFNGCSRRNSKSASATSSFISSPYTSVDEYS
In words: Signal transduction (ST), intracellular Ca++ (FLIPR), NK3. It is filed as cell-based. The settings on record: read-out: pIC50 NK3 (converted). As to the method: [The procedure below names another target; the source lists this target under the same test.] (§1) This test evaluates in vitro functional NK1 antagonistic activity. For the measurements of intracellular Ca^++ concentrations the cells were grown on 96-well (black wall/transparent bottom) plates from Costar for 2 days until they reached confluence. The cells were loaded with 2 μM Fluo3 in DMEM containing 0.1% BSA and 2.5 mM probenecid for 1 h at 37° C. They were washed 3× with a Krebs buffer (140 mM NaCl, 1 mM MgCl2×6H2O, 5 mM KCl, 10 mM glucose, 5 mM HEPES; 1.25 mM CaCl2; pH 7.4) containing 2.5 mM probenecid and 0.1% BSA (Ca^++-buffer). The cells were preincubated with a concentration range of antagonists for 20 min at RT and Ca^++-signals after addition of the agonists were measured in a Fluorescence Image Plate Reader (FLIPR from Molecular Devices, Crawley, England). The peak of the Ca^++-transient was considered as the relevant signal and the mean values of corresponding wells were analysed as described below.
The sigmoidal dose response curves were analysed by computerised curve-fitting, using the GraphPad Program. […] For antagonist responses the IC50-value was calculated using non-linear regression.
The last columns indicates—without being limited therefore—for which the compounds might be most suitable. Of course, since for some neurokinin receptors no data was determined, it is obvious that these compounds might be attributed to another suitable use.

Assay [2] addresses NK1 (Homo sapiens, UniProt P25103). Kind of assay: Signal transduction (ST), intracellular Ca++ (FLIPR), NK1 antagonistic activity. The assay is classed as cell-based. Particulars: read-out: pIC50 NK1 (converted). Here is the method:
as §1
The sigmoidal dose response curves were analysed by computerised curve-fitting, using the GraphPad Program. […] For antagonist responses the IC50-value was calculated using non-linear regression. […]

Sequence of NK1 (P25103 whole entry): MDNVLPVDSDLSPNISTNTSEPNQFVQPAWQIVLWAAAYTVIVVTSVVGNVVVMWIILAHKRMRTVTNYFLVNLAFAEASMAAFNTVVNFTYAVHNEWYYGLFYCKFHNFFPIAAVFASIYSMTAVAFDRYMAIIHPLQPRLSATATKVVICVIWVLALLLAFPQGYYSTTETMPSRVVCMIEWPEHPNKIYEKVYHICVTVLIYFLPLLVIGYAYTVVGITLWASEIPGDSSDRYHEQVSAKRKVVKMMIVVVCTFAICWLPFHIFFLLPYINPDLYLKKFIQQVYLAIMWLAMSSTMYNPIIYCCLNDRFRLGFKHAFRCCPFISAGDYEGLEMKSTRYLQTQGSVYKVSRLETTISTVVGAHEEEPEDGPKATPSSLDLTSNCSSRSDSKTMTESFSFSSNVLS

As for `COc1cc(CC(=O)N2CCC(N3CCN([C@H]4CCN(C(=O)c5cc(C(F)(F)F)cc(C(F)(F)F)c5)[C@H](Cc5ccccc5)C4)CC3)C2)cc(OC)c1OC` (stereo partly shown) [Compound 65], the IC50 in assay [1] was 3160 nM; in assay [2] it was 12.6 nM.
The like results for `O=C(C(=O)N1CCC(N2CCN([C@H]3CCN(C(=O)c4cc(C(F)(F)F)cc(C(F)(F)F)c4)[C@H](Cc4ccccc4)C3)CC2)C1)c1cccs1` (stereo partly shown) [Compound 188] were, in that order, 2000 nM and 25.1 nM.
The like results for `O=C(C1CC1)N1CCC(N2CCN(C3CCN(C(=O)c4cc(C(F)(F)F)cc(C(F)(F)F)c4)C(Cc4ccc(F)c(F)c4)C3)CC2)C1` (single isomer, unassigned) [Compound 231] were, in that order, 3160 nM and 6.31 nM.
For `O=C(c1cnccn1)N1CCC(N2CCN(C3CCN(C(=O)c4cc(C(F)(F)F)cc(C(F)(F)F)c4)C(Cc4ccc(F)c(F)c4)C3)CC2)C1` (single isomer, unassigned) [Compound 237], the IC50 was 3980 nM in assay [1] and 10 nM in assay [2].
The like results for `CC(C)(C)OCCC(=O)N1CCC(N2CCN(C3CCN(C(=O)c4cc(C(F)(F)F)cc(C(F)(F)F)c4)C(Cc4ccccc4)C3)CC2)C1` (stereo not shown) [Compound 391] were, in that order, 3160 nM and 20 nM.
Turning to `CC(C)(C)OC(=O)N1CCC(C(=O)N2CCC(N3CCN([C@H]4CCN(C(=O)c5cc(C(F)(F)F)cc(C(F)(F)F)c5)[C@H](Cc5ccccc5)C4)CC3)C2)C1` (stereo partly shown) [Compound 228], the IC50 is 6310 nM in assay [1] and 25.1 nM in assay [2].
Consider `O=C(c1ccc(Cl)cc1Cl)N1CCC(N2CCN([C@H]3CCN(C(=O)c4cc(C(F)(F)F)cc(C(F)(F)F)c4)[C@H](Cc4ccccc4)C3)CC2)C1` (stereo partly shown) [Compound 22], for which the values for the IC50 in assay [1] and in assay [2] were 2510 nM and 50.1 nM, respectively.
`CC(C)(C)CC(=O)N1CCC(N2CCN([C@H]3CCN(C(=O)c4cc(C(F)(F)F)cc(C(F)(F)F)c4)[C@H](Cc4ccccc4)C3)CC2)C1` (stereo partly shown) [Compound 200]: the figures for the IC50 in assay [1] and in assay [2] were 398 nM and 7.94 nM, respectively.
In the case of `O=C([C@H]1CCCN1)N1CCC(N2CCN([C@H]3CCN(C(=O)c4cc(C(F)(F)F)cc(C(F)(F)F)c4)[C@H](Cc4ccccc4)C3)CC2)C1` (stereo partly shown) [Compound 213], the IC50 is 1580 nM in assay [1] and 20 nM in assay [2].
The like results for `O=C1CCCN1CC(=O)N1CCC(N2CCN([C@H]3CCN(C(=O)c4cc(C(F)(F)F)cc(C(F)(F)F)c4)[C@H](Cc4ccccc4)C3)CC2)C1` (stereo partly shown) [Compound 214] were, in that order, 3980 nM and 20 nM.
Regarding `Cc1nccn1C(C(=O)N1CCC(N2CCN(C3CCN(C(=O)c4cc(C(F)(F)F)cc(C(F)(F)F)c4)C(Cc4ccccc4)C3)CC2)C1)c1ccccc1` (stereo not shown) [Compound 110], the IC50 in assay [1] was 5010 nM; in assay [2], 20 nM.
The like results for `O=C(c1cc(C(F)(F)F)cc(C(F)(F)F)c1)N1CC[C@H](N2CCN(C3CCN(S(=O)(=O)c4cccs4)C3)CC2)C[C@H]1Cc1ccc(Cl)c(Cl)c1` (relative stereo) [Compound 163] were, in that order, 158 nM and 25.1 nM.
`O=C(c1cc(C(F)(F)F)cc(C(F)(F)F)c1)N1CCC(N2CCN(C3CCN(c4noc5ccccc45)C3)CC2)CC1Cc1ccccc1` (stereo not shown) [Compound 204]: the values for the IC50 in assay [1] and in assay [2] were 2510 nM and 25.1 nM, respectively.
For `O=C(c1cc(C(F)(F)F)cc(C(F)(F)F)c1)N1CC[C@@H](N2CCN(C3CCN(S(=O)(=O)c4cccs4)C3)CC2)C[C@H]1Cc1ccc(Cl)c(Cl)c1` (relative stereo) [Compound 142], the IC50 is 794 nM in assay [1] and 126 nM in assay [2].
With `O=C(c1snnc1CO)N1CCC(N2CCN(C3CCN(C(=O)c4cc(C(F)(F)F)cc(C(F)(F)F)c4)C(Cc4ccccc4)C3)CC2)C1` (stereo not shown) [Compound 166], the IC50 was 1580 nM in assay [1] and 6.31 nM in assay [2].
The like results for `O=C(c1ccccc1Cl)N1CCC(N2CCN([C@@H]3CCN(C(=O)c4cc(C(F)(F)F)cc(C(F)(F)F)c4)[C@H](Cc4ccc(Cl)c(Cl)c4)C3)CC2)C1` (relative stereo) [Compound 141] were, in that order, 3160 nM and 126 nM.
The like results for `CCOCCn1c(CN2CCC(N3CCN([C@H]4CCN(C(=O)c5cc(C(F)(F)F)cc(C(F)(F)F)c5)[C@H](Cc5ccccc5)C4)CC3)C2)nc2ccccc21` (stereo partly shown) [Compound 11] were, in that order, 3160 nM and 126 nM.
As for `COc1ccc2[nH]c(C(=O)N3CCC(N4CCN([C@H]5CCN(C(=O)c6cc(C(F)(F)F)cc(C(F)(F)F)c6)[C@H](Cc6ccccc6)C5)CC4)C3)cc2c1` (stereo partly shown) [Compound 55], the IC50 was 7940 nM in assay [1] and 316 nM in assay [2].
Consider `O=C(C1CC1)N1CCC(N2CCN(C3CCN(C(=O)c4cc(C(F)(F)F)cc(C(F)(F)F)c4)C(Cc4ccccc4)C3)CC2)C1` (single isomer, unassigned) [Compound 137], for which the IC50 in assay [1] was 6310 nM; in assay [2] it was 158 nM.
The like results for `CC(=O)N1CCCC1C(=O)N1CCC(N2CCN([C@H]3CCN(C(=O)c4cc(C(F)(F)F)cc(C(F)(F)F)c4)[C@H](Cc4ccccc4)C3)CC2)C1` (stereo partly shown) [Compound 187] were, in that order, 5010 nM and 15.8 nM.
The like results for `CC(=O)N1CCC(N2CCN([C@H]3CCN(C(=O)c4cc(C(F)(F)F)cc(C(F)(F)F)c4)[C@H](Cc4ccccc4)C3)CC2)C1` (stereo partly shown) [Compound 198] were, in that order, 2510 nM and 31.6 nM.
Turning to `Cc1nc2c(o1)CCn1ccnc1C2N1CCC(N2CCN(C3CCN(C(=O)c4cc(C(F)(F)F)cc(C(F)(F)F)c4)C(Cc4ccccc4)C3)CC2)C1` (stereo not shown) [Compound 375], the IC50 is 3980 nM in assay [1] and 12.6 nM in assay [2].
As for `COCC(=O)N1CCC(N2CCN(C3CCN(C(=O)c4cc(C(F)(F)F)cc(C(F)(F)F)c4)C(Cc4ccccc4)C3)CC2)C1` (stereo not shown) [Compound 177], the values for the IC50 in assay [1] and in assay [2] were 2510 nM and 63.1 nM, respectively.
Regarding `O=C(c1cc(C(F)(F)F)cc(C(F)(F)F)c1)N1CCC(N2CCN(C3CCN(Cc4ccccc4)C3)CC2)CC1Cc1ccc(F)c(F)c1` (single isomer, unassigned) [Compound 223], the IC50 was 1580 nM in assay [1] and 158 nM in assay [2].
The like results for `O=C(c1cc(C(F)(F)F)cc(C(F)(F)F)c1)N1CCC(N2CCN(C3CCN(S(=O)(=O)c4cccs4)C3)CC2)CC1Cc1ccc(F)c(F)c1` (single isomer, unassigned) [Compound 234] were, in that order, 3160 nM and 10 nM.
With `O=C(c1cccc2ccccc12)N1CCC(N2CCN([C@H]3CCN(C(=O)c4cc(C(F)(F)F)cc(C(F)(F)F)c4)[C@H](Cc4ccccc4)C3)CC2)C1` (stereo partly shown) [Compound 54], the IC50 in assay [1] was 794 nM; in assay [2], 39.8 nM.
The like results for `O=C(c1ccccc1)N1CCC(N2CCN(C3CCN(C(=O)c4cc(C(F)(F)F)cc(C(F)(F)F)c4)C(Cc4ccccc4)C3)CC2)C1` (stereo not shown) [Compound 3] were, in that order, 1580 nM and 126 nM.
As to `CC1(C)OCC(CNC(=C[N+](=O)[O-])N2CCC(N3CCN([C@H]4CCN(C(=O)c5cc(C(F)(F)F)cc(C(F)(F)F)c5)[C@H](Cc5ccccc5)C4)CC3)C2)O1` (stereo partly shown) [Compound 376], the IC50 in assay [1] is 3980 nM; in assay [2], 25.1 nM.
For `COc1cccc(OC)c1C(=O)N1CCC(N2CCN([C@H]3CCN(C(=O)c4cc(C(F)(F)F)cc(C(F)(F)F)c4)[C@H](Cc4ccccc4)C3)CC2)C1` (stereo partly shown) [Compound 18], the IC50 in assay [1] was 2510 nM; in assay [2] it was 25.1 nM.
